Data: patent publication US7005430B2, “Fused purine derivatives” (Kyowa Hakko Kogyo Co., Ltd., priority 1999, dated 2006)
Counter-ions that a name gives are not always drawn.

Columns and labels:
[1] = tested on: MIN6 cell; test: Insulin secretion promoting activity for cultured β cells (MIN6); assay type: cell-based; settings: for secretion promoting action at a low glucose concentration (in words): MIN6 cells, glucose at a low concentration (5 mmol/L)
Description: Culture of the MIN6 cells above and insulin secretion test utilizing the MIN6 cells were performed according to the methods described in Diabetologia, vol. 36, pp. 1139–1145, 1993. The effect of a compound on the insulin secretion in the presence of 14.5 mmol/L glucose was determined by measuring insulin amounts in cell culture supernatants collected as follows. MIN6 cells cultured on a 24-well plate were washed twice by using 1 mL of Buffer A (119 mmol/L sodium chloride, 4.74 mmol/L potassium chloride, 2.54 mmol/L calcium chloride, 1.19 mmol/L magnesium sulfate, 1.19 mmol/L potassium dihydrogenphosphate, 10 mmol/L 2-[4-(2-hydroxyethyl)-1-piperazinyl]ethanesulfonic acid, 0.1% bovine serum albumin, pH 7.3) containing 2 mmol/L glucose, and then were incubated in 1 mL of Buffer A containing 2 mmol/L glucose at 37° C. for 45 minutes. After the incubation, the culture supernatant was changed to Buffer A (0.9 mL) containing a test compound at various concentrations and 2 mmol/L glucose, and the cells were further incubated at 37° C. for 15 minutes. The MIN6 cells were stimulated with glucose by the addition of Buffer A (0.1 mL) containing 127 mmol/L glucose to the culture (final glucose concentration: 14.5 mmol/L). After the stimulation, the cells were further incubated at 37° C. for 45 minutes, and then the culture supernatant was collected.
Separately, the effect of a compound on the insulin secretion in the presence of 5 mmol/L glucose was determined by measuring insulin amounts in cell culture supernatants collected as follows. MIN6 cells cultured on a 24-well plate were washed twice by using 1 mL of Buffer A containing 5 mmol/L glucose, and then the culture supernatant was changed to Buffer A (0.9 mL) containing a test compound at various concentrations and 5 mmol/L glucose. Then, the cells were incubated at 37° C. for 45 minutes (final glucose concentration: 5 mmol/L), and the culture supernatant was collected.
After the culture supernatant was diluted with a phosphate buffer containing 1% bovine serum albumin, 0.1% Tween 20, 0.12% disodium ethylenediaminetetraacetate (EDTA) and 0.1% sodium azide, antibody-reactive insulin secreted in the culture supernatant was quantified by enzyme immunoassay or radio immunoassay. The insulin level was indicated as the amount of human insulin (ng/mL). The results are indicated as averages (avg) for 3 to 4 samples with standard erroe values (se).

[2] = in the presence of 5 mmol/L of glucose, drug concentration 10 (mmol/L [sic]), None = 51.2
[3] = in the presence of 14.5 mmol/L of glucose, drug concentration 1.0 μmol/L, None = 148.4

Structure (SMILES)	melting point	Insulin secretion amount (ng/ml) avg [1, 2] [ng/mL]	Insulin secretion amount (ng/ml) avg [1, 3] [ng/mL]	also measured
CCCN1C(=O)N2C[C@@H](Cc3ccccc3)N=C2c2[nH]c(CCC(=O)O)nc21	274 to 276 °C			
CCCN1C(=O)N2C[C@@H](Cc3ccccc3)N=C2c2[nH]c(C3CCN(C(=O)OC(C)(C)C)CC3)nc21.Cl	204 to 205 °C			
Cl.O=C(O)CN1C(=O)N2C[C@@H](Cc3ccccc3)N=C2c2[nH]c(C3CCCC3)nc21	280 °C (dec.)			
Cl.O=C1N2C[C@@H](Cc3ccc(F)cc3)N=C2c2[nH]c(C3CCCC3)nc2N1CCO	165 to 167 °C			
CCCN1C(=O)N2CC(Cc3ccccc3)CN=C2c2[nH]c(COCC)nc21.O=C(O)/C=C/C(=O)O (stereo not drawn)	152 to 157 °C			
O=C1N2CC(Cc3ccncc3)N=C2c2[nH]c(C3CCCC3)nc2N1CC1CC1 (stereo not drawn) (as salt: hydrochloride) [Compound 14, 2-Cyclopentyl-4-cyclopropylmethyl-7,8-dihydro-8-(4-picolyl)-1H-imidazo[2,1-i]purin-5(4H)-one dihydrochloride]	240 to 241 °C			
CCCN1C(=O)N2C[C@@H](Cc3ccccc3)N=C2c2[nH]c(C3(O)CCCC3)nc21 (as salt: salt) [Compound 40, (R)-8-Benzyl-7,8-dihydro-2-(1-hydroxycyclopentyl)-4-(n-propyl)-1H-imidazo[2,1-i]purin-5(4H)-one]	187 to 188 °C			
CC(C)[C@H]1CC[C@H](C(=O)N[C@H](Cc2ccccc2)C(=O)O)CC1 [AY4166, reference compound]		170.8		secretion promoting action at a low glucose concentration (in words) [1]: marked secretion promoting action; Insulin secretion amount (ng/ml) avg ([1]; in the presence of 14.5 mmol/L of glucose, drug concentration 10 μmol/L, None = 148.4): 195.1 ng/mL
CCCc1nc2c([nH]1)C1=NC(Cc3ccncc3)CN1C(=O)N2CCC (stereo not drawn) [Compound 8, 7,8-Dihydro-8-(4-picolyl)-2,4-dipropyl-1H-imidazo[2,1-i]purin-5(4H)-one]	270 to 274 °C			
CCCN1C(=O)N2C[C@@H](Cc3ccncc3)N=C2c2[nH]c(C3CCCCC3)nc21 [Compound 9, (R)-2-Cyclohexyl-7,8-dihydro-8-(4-picolyl)-4-(n-propyl)-1H-imidazo[2,1-i]purin-5(4H)-one]		74.0	197.6	
CCCN1C(=O)N2C[C@@H](Cc3ccncc3)N=C2c2[nH]c(C3CCC3)nc21 [Compound 10, (R)-2-Cyclobutyl-7,8-dihydro-8-(4-picolyl)-4-(n-propyl)-1H-imidazo[2,1-i]purin-5(4H)-one D-tartrate]		74.9	196.8	
CCCN1C(=O)N2CC(Cc3ccncc3)N=C2c2[nH]c(C(C)(C)C)nc21 (stereo not drawn) [Compound 11, 2-(tert-Butyl)-7,8-dihydro-8-(4-picolyl)-4-(n-propyl)-1H-imidazo[2,1-i]purin-5(4H)-one]	293 to 295 °C			
O=C1N2CC(Cc3ccncc3)N=C2c2[nH]c(C3CCCC3)nc2N1CC1CC1 (stereo not drawn) [Compound 14, 2-Cyclopentyl-4-cyclopropylmethyl-7,8-dihydro-8-(4-picolyl)-1H-imidazo[2,1-i]purin-5(4H)-one dihydrochloride]		66.4	177.9	
CCCN1C(=O)N2CC(Cn3cccn3)N=C2c2[nH]c(C3CCCC3)nc21 (stereo not drawn) [Compound 21, 2-Cyclopentyl-7,8-dihydro-4-(n-propyl)-8-(1-pyrazolylmethyl)-1H-imidazo[2,1-i]purin-5(4H)-one]		74.8	182.1	
CCCN1C(=O)N2CC(Cn3cccc3)N=C2c2[nH]c(C3CCCC3)nc21 (stereo not drawn) [Compound 24, 2-Cyclopentyl-7,8-dihydro-4-(n-propyl)-8-(1-pyrrolylmethyl)-1H-imidazo[2,1-i]purin-5(4H)-one]		71.8	200.0	
CCCN1C(=O)N2C[C@@H](Cc3ccccc3)N=C2c2c1nc(Br)n2Cc1ccccc1 [Compound 35, (R)-1,8-Dibenzyl-2-bromo-7,8-dihydro-4-(n-propyl)-1H-imidazo[2,1-i]purin-5(4H)-one]	200 to 206 °C			
CCCN1C(=O)N2C[C@@H](Cc3ccccc3)N=C2c2c1nc(SC)n2COC [Compound 36, (R)-8-Benzyl-7,8-dihydro-1-methoxymethyl-2-methylthio-4-(n-propyl)-1H-imidazo[2,1-i]purin-5(4H)-one]	110 to 112 °C			
CCCN1C(=O)N2C[C@@H](Cc3ccccc3)N=C2c2[nH]c(C3(O)CCCC3)nc21 [Compound 40, (R)-8-Benzyl-7,8-dihydro-2-(1-hydroxycyclopentyl)-4-(n-propyl)-1H-imidazo[2,1-i]purin-5(4H)-one]		56.7	191.2	
CCCN1C(=O)N2C[C@@H](Cc3ccccc3)N=C2c2c1nc(C=O)n2Cc1ccccc1 [Compound 41, (R)-1,8-Dibenzyl-2-formyl-7,8-dihydro-4-(n-propyl)-1H-imidazo[2,1-i]purin-5(4H)-one]	184 to 185 °C			
CCCN1C(=O)N2C[C@@H](Cc3ccccc3)N=C2c2c1nc(CCl)n2Cc1ccccc1 [Compound 42, (R)-1,8-Dibenzyl-2-chloromethyl-7,8-dihydro-4-(n-propyl)-1H-imidazo[2,1-i]purin-5(4H)-one]	112 to 113 °C			
CCCN1C(=O)N2C[C@@H](Cc3ccccc3)N=C2c2[nH]c(COCC)nc21.CCCN1C(=O)N2C[C@@H](Cc3ccccc3)N=C2c2[nH]c(COCC)nc21.O=C(O)/C=C/C(=O)O [Compound 45, (R)-8-Benzyl-2-ethoxymethyl-7,8-dihydro-4-(n-propyl)-1H-imidazo[2,1-i]purin-5(4H)-one 0.5 fumarate]		69.9	178.8	
CCCN1C(=O)N2C[C@@H](Cc3ccccc3)N=C2c2[nH]c(C3CCCO3)nc21 (stereo partly drawn) [Compound 51, (R)-8-Benzyl-7,8-dihydro-4-(n-propyl)-2-(tetrahydrofuran-2-yl)-1H-imidazo[2,1-i]purin-5(4H)-one D-tartrate]		79.2	180.8	
CCCN1C(=O)N2C[C@@H](Cc3ccccc3)N=C2c2[nH]c(COCc3ccccc3)nc21.CCCN1C(=O)N2C[C@@H](Cc3ccccc3)N=C2c2[nH]c(COCc3ccccc3)nc21.O=C(O)/C=C/C(=O)O [Compound 56, (R)-8-Benzyl-2-benzyloxymethyl-7,8-dihydro-4-(n-propyl)-1H-imidazo[2,1-i]purin-5(4H)-one 0.5 fumarate]		56.2	189.0	
CCCN1C(=O)N2C[C@@H](Cc3ccccc3)N=C2c2[nH]c(CSCC)nc21.CCCN1C(=O)N2C[C@@H](Cc3ccccc3)N=C2c2[nH]c(CSCC)nc21.O=C(O)/C=C/C(=O)O [Compound 64, (R)-8-Benzyl-2-ethylthiomethyl-7,8-dihydro-4-(n-propyl)-1H-imidazo[2,1-i]purin-5(4H)-one 0.5 fumarate]		61.2	204.9	
CSCCCOC1=Nc2nc(C3CCCC3)[nH]c2C2=N[C@H](Cc3ccccc3)CN12 [Compound 71, (R)-8-Benzyl-2-cyclopentyl-7,8-dihydro-5-(3-methylthiopropyloxy)-1H-imidazo[2,1-i]purine]		107.7	211.0	
CC(C)(O)CN1C(=O)N2C[C@@H](Cc3ccccc3)N=C2c2[nH]c(C3CCCC3)nc21 [Compound 81, (R)-8-Benzyl-2-cyclopentyl-7,8-dihydro-4-(2-hydroxy-2-methylpropyl)-1H-imidazo[2,1-i]purin-5(4H)-one hydrochloride]		83.1	195.4	
CC(C)(O)CCN1C(=O)N2C[C@@H](Cc3ccccc3)N=C2c2[nH]c(C3CCCC3)nc21 [Compound 85, (R)-8-Benzyl-2-cyclopentyl-7,8-dihydro-4-(3-hydroxy-3-methylbutyl)-1H-imidazo[2,1-i]purin-5(4H)-one hydrochloride]		53.6	197.1	
COc1ccc(Cl)cc1C(=O)NCCc1ccc(S(=O)(=O)NC(=O)NC2CCCCC2)cc1 [Glibenclamide, reference compound]				secretion promoting action at a low glucose concentration (in words) [1]: marked secretion promoting action; Insulin secretion amount (ng/ml) avg ([1]; in the presence of 5 mmol/L of glucose, drug concentration 0.1 (mmol/L [sic]), None = 51.2): 156.8 ng/mL; Insulin secretion amount (ng/ml) avg ([1]; in the presence of 14.5 mmol/L of glucose, drug concentration 0.1 μmol/L, None = 148.4): 177.8 ng/mL
